Experimental data reported in ChEMBL document CHEMBL4725353, “Discovery of Pyrido[2,3-b]indole Derivatives with Gram-Negative Activity Targeting Both DNA Gyrase and Topoisomerase IV” (J Med Chem, 2020).
Values after ≈ are worked out from the molar mass of the structure shown.

How the values were obtained:
[1] = physchem; conditions: PBS, pH 6.5
Description: Solubility of compound in PBS at pH 6.5 incubated for over night by HPLC-UV based lyophilization solubility assay

[2] = tested on: Escherichia coli; test: microbe, parasite or virus in culture; conditions: ATCC 25922
Description: Antibacterial activity against Escherichia coli ATCC 25922 assessed as reduction in microbial growth preincubated for 20 to 24 hrs followed by subculture in absence of compound and measured on day 4 CLSI based broth microdilution susceptibility method

[3] = in vitro; conditions: mouse, liver microsomes
Description: Intrinsic clearance in mouse liver microsomes preincubated for 10 mins followed by NADPH regenerating system addition and measured up to 30 mins by LC/MS-MS analysis

[4] = Protein binding in plasma (unknown origin) assessed as unbound fraction at 1 uM after 5 hrs by LC/MS-MS analysis; format: ADME, cell-free
[5] = physchem
Description: Ionization constant (acid), pKa of the compound by photometric titration assay

[6] = tested on: Escherichia coli; test: microbe, parasite or virus in culture; conditions: ATCC 29213
Description: Antibacterial activity against Escherichia coli ATCC 29213 assessed as reduction in microbial growth preincubated for 20 to 24 hrs followed by subculture in absence of compound and measured on day 4 CLSI based broth microdilution susceptibility method

[7] = tested on: Pseudomonas aeruginosa; test: Antibacterial activity against Pseudomonas aeruginosa ATCC 27853 assessed as reduction in microbial growth preincubated for 20 to 24 hrs followed by subculture in absence of compound and measured on day 4 CLSI based broth microdilution susceptibility method; format: functional; conditions: time hrs 20-24
[8] = tested on: Klebsiella pneumoniae; test: Antibacterial activity against Klebsiella pneumoniae ATCC 10031 assessed as reduction in microbial growth preincubated for 20 to 24 hrs followed by subculture in absence of compound and measured on day 4 CLSI based broth microdilution susceptibility method; format: functional; conditions: time hrs 20-24
[9] = tested on: Acinetobacter baumannii; test: Antibacterial activity against Acinetobacter baumannii ATCC 51432 assessed as reduction in microbial growth preincubated for 20 to 24 hrs followed by subculture in absence of compound and measured on day 4 CLSI based broth microdilution susceptibility method; format: functional; conditions: time hrs 20-24
[10] = tested on: Pseudomonas aeruginosa; test: Antibacterial activity against Pseudomonas aeruginosa PAO1 assessed as reduction in microbial growth preincubated for 20 to 24 hrs followed by subculture in absence of compound and measured on day 4 CLSI based broth microdilution susceptibility method; format: functional; conditions: time hrs 20-24
[11] = tested on: Klebsiella pneumoniae; test: Antibacterial activity against Klebsiella pneumoniae ATCC BAA-2146 assessed as reduction in microbial growth preincubated for 20 to 24 hrs followed by subculture in absence of compound and measured on day 4 CLSI based broth microdilution susceptibility method; format: functional; conditions: time hrs 20-24
[12] = tested on: Acinetobacter baumannii; test: Antibacterial activity against Acinetobacter baumannii ATCC BAA-747 assessed as reduction in microbial growth preincubated for 20 to 24 hrs followed by subculture in absence of compound and measured on day 4 CLSI based broth microdilution susceptibility method; format: functional; conditions: time hrs 20-24
[13] = tested on: Acinetobacter baumannii; test: Antibacterial activity against Acinetobacter baumannii ATCC 19606 assessed as reduction in microbial growth preincubated for 20 to 24 hrs followed by subculture in absence of compound and measured on day 4 CLSI based broth microdilution susceptibility method; format: functional; conditions: time hrs 20-24
[14] = tested on: Pseudomonas aeruginosa; test: Antibacterial activity against Pseudomonas aeruginosa ATCC BAA-2113 assessed as reduction in microbial growth preincubated for 20 to 24 hrs followed by subculture in absence of compound and measured on day 4 CLSI based broth microdilution susceptibility method; format: functional; conditions: time hrs 20-24
[15] = Distribution coefficient between octanol and buffer, log D of the compound in pH 7.4 buffer by CAMDIS assay; format: physicochemical
[16] = tested on: Klebsiella pneumoniae; test: Antibacterial activity against Klebsiella pneumoniae ATCC 700603 assessed as reduction in microbial growth preincubated for 20 to 24 hrs followed by subculture in absence of compound and measured on day 4 CLSI based broth microdilution susceptibility method; format: functional; conditions: time hrs 20-24
[17] = tested on: Escherichia coli; test: Antibacterial activity against Escherichia coli ATCC BAA-2340 assessed as reduction in microbial growth preincubated for 20 to 24 hrs followed by subculture in absence of compound and measured on day 4 CLSI based broth microdilution susceptibility method; format: functional; conditions: time hrs 20-24
[18] = tested on: Escherichia coli; test: Antibacterial activity against Escherichia coli ATCC 35218 assessed as reduction in microbial growth preincubated for 20 to 24 hrs followed by subculture in absence of compound and measured on day 4 CLSI based broth microdilution susceptibility method; format: functional; conditions: time hrs 20-24
[19] = Dissociation constant, pKa of compound by photometric titration assay; format: physicochemical
[20] = Intrinsic clearance in mouse hepatocytes by LC/MS-MS analysis; format: ADME, cell-based, Hepatocyte

| SMILES | solubility [1] [µg/mL] | MIC [2] [µg/mL] | CLint scaled at 0.5 h [3] [mL/min/kg] | fraction unbound at 5 h, 1 µM [4] | pKa [5] | MIC [6] [µg/mL] | MIC [7] [µg/mL] | MIC [8] [µg/mL] | MIC [9] [µg/mL] | MIC [10] [µg/mL] | MIC [11] [µg/mL] | MIC [12] [µg/mL] | MIC [13] [µg/mL] | MIC [14] [µg/mL] | logD [15] | MIC [16] [µg/mL] | MIC [17] [µg/mL] | MIC [18] [µg/mL] | pKa [19] | CLH [20] [µg/mL] |
| --- | --- | --- | --- | --- | --- | --- | --- | --- | --- | --- | --- | --- | --- | --- | --- | --- | --- | --- | --- | --- |
| CCNc1cc(F)cc2c1[nH]c1ncc(-c3cnc(OC)nc3)c(-n3nc(C(F)(F)F)c4c3CNC4)c12 | 4 (≈ 7.81 µM) | 1 (≈ 1.95 µM) | 77.4 | 0.016 | – | – | – | – | – | – | – | – | – | – | – | – | – | – | – | – |
| CCNc1cc(F)cc2c1[nH]c1ncc(-c3cncc(C#N)c3)c(-n3nc(C(F)(F)F)c4c3CNC4)c12 | < 0.3 | 1 (≈ 1.97 µM) | 73.2 | 0.012 | 6.57 | – | – | – | – | – | – | – | – | – | – | – | – | – | – | – |
| CCNc1cc(F)cc2c1[nH]c1ncc(-c3cnc(NC4CCNC4)nc3)c(-n3ccc(C(F)(F)F)n3)c12 (stereo not given) | 8.3 (≈ 15.8 µM) | 2 (≈ 3.81 µM) | 60.1 | – | 9.55 | 0.25 (≈ 0.476 µM) | – | – | – | – | – | – | – | – | – | – | – | – | – | – |
| CCNc1cc(F)cc2c1[nH]c1ncc(-c3cncc(CO)c3)c(-n3ccc(C(F)(F)F)n3)c12 | – | 0.5 (≈ 1.06 µM) | – | – | – | < 0.016 | > 23.5 | 0.183 | > 23.5 | 4 | > 23.5 | > 23.5 | 73 | 1.47 | 3.56 | 1.47 | 1.47 | 1.47 | – | – |
| CCNc1cc(F)cc2c1[nH]c1ncc(-c3cnc(NC4CCNCC4)nc3)c(-n3ccc(C(F)(F)F)n3)c12 | 7.6 (≈ 14.1 µM) | 1 (≈ 1.85 µM) | 57.9 | – | 9.52 | 0.63 (≈ 1.17 µM) | – | – | – | – | – | – | – | – | – | – | – | – | – | – |
| CCNc1cc(F)cc2c1[nH]c1ncc(-c3cncc(CN)c3)c(-n3ccc(C(F)(F)F)n3)c12 | – | 1 (≈ 2.13 µM) | – | – | 8.62 | < 0.25 | – | – | – | – | – | – | – | – | 2.94 | – | – | – | – | – |
| CCNc1cc(F)cc2c1[nH]c1ncc(-c3cncc(Cc4nnn[nH]4)c3)c(-n3ccc(C(F)(F)F)n3)c12 | – | > 11.4 | – | – | – | 0.444 (≈ 0.85 µM) | – | – | – | – | – | – | – | – | 1.93 | – | – | – | 4.78 | – |
| CCNc1cc(F)cc2c1[nH]c1ncc(-c3cncnc3)c(-n3ccc(C(F)(F)F)n3)c12 | < 0.2 | 0.25 (≈ 0.566 µM) | 76.1 | – | – | < 0.016 | 1.38 | 0.09 | 1.38 | 2 | 1.38 | 0.69 | 0.17 | 0.34 | 3.48 | 0.69 | 1.38 | 0.34 | – | – |
| CCNc1cc(F)cc2c1[nH]c1ncc(-c3cnc(OC4CNC4)nc3)c(-n3ccc(C(F)(F)F)n3)c12 | – | 1 (≈ 1.95 µM) | – | – | 8.62 | 0.63 (≈ 1.23 µM) | – | – | – | – | – | – | – | – | – | – | – | – | – | – |
| CCNc1cc(F)cc2c1[nH]c1ncc(-c3cncc(C#N)c3)c(-n3ccc(C(F)(F)F)n3)c12 | < 0.3 | 0.5 (≈ 1.07 µM) | 61.8 | – | – | < 0.016 | 5.82 | 0.73 | > 23.3 | 2 | 5.82 | 1.45 | 0.73 | 1.45 | 3.63 | 1.45 | 2.91 | 1.45 | – | – |
| CCNc1cc(F)cc2c1[nH]c1ncc(-c3cncc(C(N)=O)c3)c(-n3ccc(C(F)(F)F)n3)c12 | – | 0.5 (≈ 1.03 µM) | – | – | – | < 0.016 | 0.76 | 0.09 | 3.02 | 2 | 3.02 | 3.02 | 0.76 | 0.76 | 3.25 | 0.76 | 0.76 | 0.76 | – | – |
| CCNc1cc(F)cc2c1[nH]c1ncc(-c3cncc(C#N)c3)c(-n3ccc(N)n3)c12 | – | 8 (≈ 19.4 µM) | – | – | 2.02 | 0.125 (≈ 0.303 µM) | – | – | – | – | – | – | – | – | – | – | – | – | – | – |
| CCNc1cc(F)cc2c1[nH]c1ncc(-c3cncc(N)c3)c(-n3ccc(C(F)(F)F)n3)c12 | – | 0.25 (≈ 0.549 µM) | – | – | 4.84 | < 0.016 | 2.85 | 0.178 | 5.7 | 2 | 5.7 | 2.85 | 1.42 | 1.42 | 3.44 | 1.42 | 2.85 | 2.85 | – | – |
| CCNc1cc(F)cc2c1[nH]c1ncc(-c3cncc(C#N)c3)c(-n3ncc4c3CNC4)c12 | 34 (≈ 77.5 µM) | 2 (≈ 4.56 µM) | 70.3 | 0.044 | 7.62 | – | – | – | – | – | – | – | – | – | – | – | – | – | – | 74.6 |
| CCNc1cc(F)cc2c1[nH]c1ncc(-c3cncc(CC(=O)O)c3)c(-n3ccc(C(F)(F)F)n3)c12 | – | > 8 | – | – | – | 0.25 (≈ 0.502 µM) | – | – | – | – | – | – | – | – | 2.02 | – | – | – | 3.51 | – |
| CCNc1cc(F)cc2c1[nH]c1ncc(-c3cnc4ccnn4c3)c(-n3ccc(C(F)(F)F)n3)c12 | – | 0.25 (≈ 0.52 µM) | – | – | – | 0.31 (≈ 0.645 µM) | 1.5 | 0.38 | 1.5 | 2 | 1.5 | 0.75 | 0.38 | 0.75 | 3.54 | 0.75 | 0.75 | 0.75 | – | – |
| CCNc1cc(F)cc2c1[nH]c1ncc(-c3cnc(NC4CNC4)nc3)c(-n3ccc(C(F)(F)F)n3)c12 | – | 4 (≈ 7.82 µM) | – | – | 9.35 | < 0.25 | – | – | – | – | – | – | – | – | – | – | – | – | – | – |
| CCNc1cc(F)cc2c1[nH]c1ncc(-c3cnc(OC4CCNCC4)nc3)c(-n3ccc(C(F)(F)F)n3)c12 | – | 1 (≈ 1.85 µM) | – | – | 9.06 | 0.63 (≈ 1.17 µM) | – | – | – | – | – | – | – | – | – | – | – | – | – | – |
| CCNc1cc(F)cc2c1[nH]c1ncc(-c3cnc(N4CCNCC4)nc3)c(-n3ccc(C(F)(F)F)n3)c12 | < 1 | 1 (≈ 1.9 µM) | 61.4 | – | 8.6 | 0.31 (≈ 0.59 µM) | – | – | – | – | – | – | – | – | – | – | – | – | – | – |
| CCNc1cc(F)cc2c1[nH]c1ncc(-c3cnc(N)nc3)c(-n3ccc(C(F)(F)F)n3)c12 | 7.6 (≈ 16.7 µM) | 1 (≈ 2.19 µM) | 25.9 | – | 4.39 | 0.63 (≈ 1.38 µM) | – | – | – | – | – | – | – | – | – | – | – | – | – | – |
| CCNc1cc(F)cc2c1[nH]c1ncc(-c3cncc(C(=O)O)c3)c(-n3ccc(C(F)(F)F)n3)c12 | – | > 16 | – | – | – | 1 (≈ 2.06 µM) | – | – | – | – | – | – | – | – | 1.9 | – | – | – | 3.57 | – |
| CCNc1cc(F)cc2c1[nH]c1ncc(-c3cncc(C(=O)NOC)c3)c(-n3ccc(C(F)(F)F)n3)c12 | – | 0.5 (≈ 0.974 µM) | – | – | – | < 0.125 | – | – | – | – | – | – | – | – | 3.41 | – | – | – | – | – |
